Assays:
[1] = target: Human immunodeficiency virus type 1 integrase (Human immunodeficiency virus 1, UniProt Q7ZJM1); experiment: Inhibitory concentration against HIV-1 integrase
[2] = Antiviral activity against HIV-1 1 early replicative steps in HeLa-bgal- CD4+ (P4) reporter cells; format: functional; conditions: Human immunodeficiency virus 1

Chain of Human immunodeficiency virus type 1 integrase (Q7ZJM1 whole entry): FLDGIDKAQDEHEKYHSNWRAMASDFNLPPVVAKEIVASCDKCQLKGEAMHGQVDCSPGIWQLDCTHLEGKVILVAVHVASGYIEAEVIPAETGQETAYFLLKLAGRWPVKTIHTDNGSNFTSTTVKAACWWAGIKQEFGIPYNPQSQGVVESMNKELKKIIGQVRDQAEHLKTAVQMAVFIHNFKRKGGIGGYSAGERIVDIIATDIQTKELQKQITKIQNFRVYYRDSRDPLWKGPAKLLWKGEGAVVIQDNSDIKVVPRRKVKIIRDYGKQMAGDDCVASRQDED

IC50 [1] [µM]	EC50 [2] [µM]	Compound
1	31	O=C(O)/C=C/c1ccc(O)c(Oc2cc3cc(O)c(O)cc3oc2=O)c1
2	37	O=C(O)/C=C/c1ccc(Oc2cc3cc(O)c(O)cc3oc2=O)c(O)c1
2	12	O=c1oc2cc(O)c(O)cc2cc1O
